How the values were obtained:
[1] = Clinical study of immediate-release tozadenant: treatment-emergent adverse events, Cmax and Css (Table 18); format: in vivo, human; settings: for Total AEs/subject / concentration at 14 day / Cmax: immediate-release formulation; for Total Number of AEs: immediate-release formulation (N = 6); for concentration at 14 day / Cmax: human, plasma; for Cmax: read-out: Cmax (ng/mL) at Day 14
Description: Advantages of controlled-release formulations compared to immediate-release formulations include: lower incidence of adverse events; improved tolerability; reduced frequency of dosing; and improved compliance due to reduced frequency of dosing.
An example of an efficacious dose of tozadenant is 120 mg of an immediate-release formulation administered twice a day (BID). […] Thus, a CR formulation could be designed to achieve an efficacious Css lower than the plasma levels (Cmax) that result in AEs. An efficacious CR formulation would preferably result in a Css in the range of 0.5-3.0 μg/mL.

[2] = Treatment-emergent adverse events and tozadenant plasma Cmax by dose in patients (Table 19); format: in vivo, human; settings: for Cmax at 6 week / Cmax: human, oral; for Cmax at 6 week: maximum plasma concentration in group of 63-75 patients, time since last dose unknown; for Cmax: plasma, read-out: Cmax (ng/mL) at ~5 hr postdose at Day 1
Source text: Table 19 summarizes the dose response of AEs observed in patients taking tozadenant alongside the plasma Cmax. A clear trend of increasing AEs and discontinuation of therapy is seen with doses that result in higher tozadenant Cmax. A controlled-release formulation can be used to achieve the drug levels (Css) that are therapeutically effective while avoiding the high plasma Cmax and AEs associated with high doses of an IR formulation.

[3] = Physical characterization of tozadenant API; format: physicochemical
Source text: The active pharmaceutical ingredient (API) was very fine, with ˜60% fines. […] The observed loss upon drying indicated a low amount of water and volatile matter in API.

COc1ccc(N2CCOCC2)c2sc(NC(=O)N3CCC(C)(O)CC3)nc12 [tozadenant, 4-hydroxy-4-methyl-piperidine-1-carboxylic acid (4-methoxy-7-morpholin-4-yl-benzothiazol-2-yl)-amide]
Css ([1]; 120 mg of an immediate-release formulation administered twice a day (BID)): about 2.4 μg/mL | Total AEs/subject ([1]; 120 BID): 0.7 | Total Number of AEs ([1]; 120 BID): 4 | Total AEs/subject ([1]; 240 BID): 4.0 | Total Number of AEs ([1]; 240 BID): 24 | Total AEs/subject ([1]; 240 QD): 2.7 | Total Number of AEs ([1]; 240 QD): 16 | Total AEs/subject ([1]; 480 QD): 5.0 | Total Number of AEs ([1]; 480 QD): 30 | concentration at 14 day ([1]; 120 mg, 120 BID): 2360 ng/mL | Cmax ([1]; 120 mg, 120 BID): 2970 ng/mL | concentration at 14 day ([1]; 240 mg, 240 BID): 4810 ng/mL | Cmax ([1]; 240 mg, 240 BID): 6160 ng/mL | concentration at 14 day ([1]; 240 mg, 240 QD): 2080 ng/mL | Cmax ([1]; 240 mg, 240 QD): 3440 ng/mL | concentration at 14 day ([1]; 480 mg, 480 QD): 3500 ng/mL | Cmax ([1]; 480 mg, 480 QD): 5120 ng/mL | Patients discontinuing due to AEs, % ([2]; 60 mg BID): 8% | Patients with no AE, % ([2]; 60 mg BID): 28% | Patients with ≥ 1 AE related to study drug, % ([2]; 60 mg BID (N = 85)): 44% | Patients discontinuing due to AEs, % ([2]; 120 mg BID): 12% | Patients with no AE, % ([2]; 120 mg BID): 26% | Patients with ≥ 1 AE related to study drug, % ([2]; 120 mg BID (N = 82)): 55% | Patients discontinuing due to AEs, % ([2]; 180 mg BID): 12% | Patients with no AE, % ([2]; 180 mg BID): 21% | Patients with ≥ 1 AE related to study drug, % ([2]; 180 mg BID (N = 85)): 55% | Patients discontinuing due to AEs, % ([2]; 240 mg BID): 20% | Patients with no AE, % ([2]; 240 mg BID): 18% | Patients with ≥ 1 AE related to study drug, % ([2]; 240 mg BID (N = 84)): 63% | Cmax at 6 week ([2]; 60 mg BID): 2570 ng/mL | Cmax ([2]; 60 mg BID): 424 ng/mL | Cmax at 6 week ([2]; 120 mg BID): 3910 ng/mL | Cmax ([2]; 120 mg BID): 680 ng/mL | Cmax at 6 week ([2]; 180 mg BID): 5460 ng/mL | Cmax ([2]; 180 mg BID): 999 ng/mL | Cmax at 6 week ([2]; 240 mg BID): 6630 ng/mL | Cmax ([2]; 240 mg BID): 1150 ng/mL | Bulk density [3]: 0.1948 g/mL | Compressibility index [3]: 35.065 | Fines Portion (# 60 pass portion) [3]: 60.00% | Granular Portion (# 60 Retain portion) [3]: 40.00% | Hausner ratio [3]: 1.5406 | Tapped density [3]: 0.3000 g/mL | Particle size distribution (% Retention) ([3]; ASTM # 20 mesh (841μ)): 0.00% | Particle size distribution (% Retention) ([3]; ASTM # 40 mesh (420μ)): 7.00% | Particle size distribution (% Retention) ([3]; ASTM # 60 mesh (250μ)): 33.00% | Particle size distribution (% Retention) ([3]; ASTM # 80 mesh (177μ)): 18.00% | Particle size distribution (% Retention) ([3]; ASTM # 100 mesh (149μ)): 16.00% | Particle size distribution (% Retention) ([3]; ASTM # 200 mesh (75μ)): 21.00% | Particle size distribution (% Retention) ([3]; Pan): 5.00% | Loss on drying ([3]; at 105° C. for 5 minutes): 0.400 % w/w

— patent US10653699B2, “Controlled-release tozadenant formulations” (BIOTIE THERAPIES, INC., priority 2015, dated 2020)
